# Measured values as given in patent US12459954B2, “Crystalline form a of GLP-1 receptor agonist and preparation method therefor” (Hangzhou Zhongmei Huadong Pharmaceutical Co., Ltd., priority 2020, dated 2025).
# Where a name gives a salt, the structure may show the parent alone.
# Columns and labels:
# Format in all cases: physicochemical
# [1] = Study of stability: chemical stability expressed in the HPLC purity; details: dihydrochloride
# [2] = as above
# Method: (§1) The crystal form A of OAD2 was subject to a stability study. The crystal form A was tested stability in H2O, SGF (simulated gastric fluid), FeSSIF (simulated intestinal fluid in the feeding state) and FaSSIF (simulated intestinal fluid in the fasting state). The chemical stability was expressed in the HPLC purity. The crystal form stability was expressed by detecting the change of crystal form by XPRD.
# [3] = Hygroscopic weight increment on placement (water absorption); details: for weight increase from absorption of water: after 5 days under certain (experimental) / similar conditions
# [4] = Study of stability: crystal form stability by detecting the change of crystal form by XRPD
# Method: X-ray powder dfraction (XRPD): Empyren; test conditions: power 40 kV×250 mA, CuKα radiation; scanning range 3˜40° (2θ); step width 0.02°; scanning speed 5/min; scanning method: continuous scanning.
# as §1
# [5] = Placed at room temperature and room humidity, 28 d
# [6] = Room temperature and room humidity ± 25° C./60% RH, 28 d + 7 d
smiles,measurement,setting,value
"CC[C@@H](c1ccccc1)N1Cc2cc3c(cc2C[C@H]1C(=O)N[C@@H](Cc1ccc(-c2ccnc(C)c2C)cc1)C(=O)O)OC[C@H](c1ccc(OCc2ccc(Cl)c(Cl)c2)cc1)O3 [OAD2 dihydrochloride, (S)-2-(3S,8S)-3-(4-(3,4-dichlorobenzyloxy)phenyl-7-((S)-1-phenylpropyl)-2,3,6,7,8,9-hexahydro-[1,4]-dioxino[2,3-g]isoquinolin-8-ylformylamino)-3-(4-(2,3-dimethylpyridin-4-yl)phenyl)propionic acid dihydrochloride, reference compound]",HPLC purity (area %),"[1]; High temperature 60° C., 5 d",98.70 area %
same,HPLC purity (area %),"[1]; Initial, 0 d",99.03 area %
same,HPLC purity (area %),"[2]; 25°C/75+5% RH, 5 d",99.07 area %
same,weight increase from absorption of water,[3]; dihydrochloride,8.3%
same,weight increase from absorption of water,"[3]; listed as OAD2 dihydrochloride salt, dihydrochloride",8.3%
same,moisture absorption (in words),"[3]; listed as dihydrochloride salt of OAD2, dihydrochloride",absorbs moisture
"CC[C@@H](c1ccccc1)N1Cc2cc3c(cc2C[C@H]1C(=O)N[C@@H](Cc1ccc(-c2ccnc(C)c2C)cc1)C(=O)O)OC[C@H](c1ccc(OCc2ccc(Cl)c(Cl)c2)cc1)O3 [Crystal form A, (S)-2-(3S,8S)-3-(4-(3,4-dichlorobenzyloxy)phenyl-7-((S)-1-phenylpropyl)-2,3,6,7,8,9-hexahydro-[1,4]-dioxino[2,3-g]isoquinolin-8-ylformylamino)-3-(4-(2,3-dimethylpyridin-4-yl)phenyl)propionic acid]",HPLC purity (area %),"[2]; 25° C./75 ± 5% RH, 7 d",98.90 area %
same,HPLC purity (area %),"[2]; High temperature 60° C., 5 d, listed as Crystal form A (2#)",98.12 area %
same,HPLC purity (area %),"[2]; Initial, 0 d, listed as Crystal form A (1#)",98.88 area %
same,HPLC purity (area %),"[2]; Initial, 0 d, listed as Crystal form A (2#)",98.13 area %
same,HPLC purity (area %),[2]; [5],98.69 area %
same,HPLC purity (area %),[2]; [6],98.67 area %
same,chemical stability (overall finding),[2]; overall result of Table 3,good chemical stability
same,weight increase from absorption of water,[3]; listed as OAD2 crystalline Form A,did not gain weight
same,weight increase from absorption of water,[3]; listed as crystal form A of OAD2,no measurable amount weight increase
same,moisture absorption (in words),[3]; listed as crystal form A of the free base,not easy to absorb moisture
same,Change of crystal form,"[4]; 25° C./75 ± 5% RH, 7 d",no
same,Change of crystal form,"[4]; High temperature 60° C., 5 d",no
same,Change of crystal form,"[4]; Initial, 0 d",no
same,Change of crystal form,[4]; [5],no
same,Change of crystal form,[4]; [6],no
same,Change of crystal form,"[4]; Successively suspended in SGF/FeSSIF/FaSSIF/water, 1 d",no
same,change of crystal form (overall finding),[4]; under various conditions,did not change the crystal form
